This is an account of results in patent publication US20120277265A1, “NOVEL POLYQUINOLINE DERIVATIVES AND THE THERAPEUTIC USE THEREOF” (CENTRE NATIONAL DE LA RECHERCHE SCIENTIFIQUE (C.N.R.S.), priority 2005, published 2012).

Data set [1] is described as follows: Number of ZnCl2 equivalents for the ligand to be entirely in the form of Zn(II) complex. Format: binding. As to conditions: competition with the tris buffer and the DMSO.
The nature of data set [2]: Stability constants of competing chelators for Cu(II) (NIST / Sillen-Martell; log Kapp by Eq. 1-2). As to conditions: at pH = 7.4, by Eq. 1 and 2. The data set is classed as binding. An excerpt: Department of Commerce) and […]
The conditions of data set [3]: 25° C., cited from earlier work; for log K1 (stability constant for the MLc species), Cu(II): ionic strength 0.1-0.2, metal ion to chelator 1/1; for log K2 (stability constant for the M(Lc)2 species), Cu(II): ionic strength 0.1-0.2.
Data set [4] is described as follows: Stability constants of competing chelators for Zn(II) (NIST / Sillen-Martell; log Kapp by Eq. 1-2). As to conditions: for log Kapp of comparison chelators for Zn(II): comparison chelators of b563; for log K1 app, Zn(II): at pH = 7.4, by Eq. 1 and 2.
From the text: log Kapp=log K-log α (Eq. 1)
α=[H^+]^n/(Ka1×Ka2×Ka3× . . . Kan)+[H^+]^n-1/(Ka1×Ka2×Ka3× . . . Kan-1)+ . . . +[H^+]/Ka1+1 (Eq. 2)
The conditions of data set [5]: 25° C., cited from earlier work; for log K1 (stability constant for the MLc species), Zn(II): ionic strength 0.1-0.2, metal ion to chelator 1/1.
The nature of data set [6]: Competition reaction between ligand (Ls), ZnCl2 and competing chelator (Lc), UV-visible; affinity constants. Conditions: Ls/ZnCl2/Lc 1/1/1 at 15 μM; solvent per ligand as in Table 3. Format: binding. How it is done:
An organic solvent (CH3OH, dioxane or DMSO) was added in order to achieve good solubility of all the ligands and metal complexes in the concentrations used in these experiments.
As the concentration [MLs]=x % of C is measured on the UV-visible spectra, the concentrations [Ls]=(1−x) % of C, [MLc]=(1−x) % of C and [Lc]=x % of C can be deduced therefrom and:
In these conditions, [MLs]=[MLc]; [MLs]+[Lc]=Y, y≧50 and:
When log Ks 6, these equations are not used since the percentages of metal ion which is free in the solution or chelated by the solvent or the buffer are not negligible.

A short description of data set [7]: UV-visible spectrophotometric titration with ZnCl2 (metal/ligand stoichiometry). Conditions: 15 μM ligand; Tris-HCl buffer pH 7.4/organic solvent, per ligand as in Table 3 column Solvent. Format: binding. On the procedure:
(§1) An organic solvent (CH3OH, dioxane or DMSO) was added in order to achieve good solubility of the ligands and metal complexes in the concentrations used in these experiments. Exact proportions of the organic solvent/buffer mixture are specified for each UV-visible characterisation of the different ligands or metal complexes.
(§2) Aliquot portions of concentrated CuCl2 or ZnCl2 solutions (M) are added to a 15 μM ligand solution so as to induce only negligible variations in volume. After each addition, changes in absorption spectra are observed immediately and are consistent between two additions, which corresponds to a rapid complexing process. The exact absorption values relating to each ligand and the copper(II) or zinc(II) complexes thereof are detailed hereinafter in the Experimental part (in the Synthesis part for ligands and hereinafter for the metal complexes).
(§3) The stoichiometry of the different ligands (L) for Cu(II) or ZN(II) have therefore been determined spectrophotometrically by metal ion titration. In this example, for an M/L ratio increasing from 0 to 1, π→π* with transition, centred at 251 nm for the free ligand, is shifted to a lower energy with a concomitant appearance of an absorption band in the visible region of the spectrum (λmax to 383 nm), which is probably the result of an MLCT transition. For greater M/L ratios, no additional change in the UV-visible absorption spectra is observed.

Data set [8] is described as follows: Competition reaction between ligand (Ls), CuCl2 and competing chelator (Lc), UV-visible; affinity constants.
Method: An organic solvent (CH3OH, dioxane or DMSO) was added in order to achieve good solubility of all the ligands and metal complexes in the concentrations used in these experiments. Monitoring has shown that all the ligands and metal complexes examined yield results corresponding to the Beer-Lambert Law in the experimental conditions used.
Lc competing chelators were selected to provide a range of stability constants for the metal ion M presenting intervals of approximately one or two log units, as well as to make it possible for each competition experiment to quantify one of the Ls, MLs, Lcc or MLc species with a UV-vis spectrum wavelength without contaminating the three other species (FIG. 7). […] As the concentration [MLs]=x % of C is measured on the UV-visible spectra, the concentrations [Ls]=(1−x) % of C, [MLc]=(1−x) % of C and [Lc]=x % of C can be deduced therefrom and:
The nature of data set [9]: Determination of log D7.4 (1-octanol / Tris-HCl buffer). Format: physicochemical. Conditions: 1-octanol / 20 mM Tris-HCl buffer containing 150 mM NaCl (pH = 7.4) (1/1, v/v). An outline of the steps: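 Ligand partitioned between 1-octanol and 20 mM Tris-HCl pH 7.4 with 150 mM NaCl: vortexed 3 min at ambient temperature, centrifuged, each phase quantified by UV-visible spectrophotometry. log D7.4 is log of octanol/buffer concentration ratio, measured three times.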

The next data set concerns the target T1, Aβ1-42 (Homo sapiens, UniProt P05067).
T1 construct: The β-amyloid peptide Aβ1-42 (Aβ1-42) was synthesised, purified (to a purity greater than 95%); made in house; host or cells: chemical peptide synthesis (no expression host)
The experiment in a line: Inhibition of the precipitation of Aβ1-42 by the addition of ligand (Micro BCA assay of soluble/aggregated peptide). The data set is classed as biochemical. Conditions: Aβ1-42 5 μM, pH 7.4; for CuCl2 % soluble Aβ: 20 μM CuCl2, 1 h 37° C. then 1 h with 200 μM ligand; for FeCl3 % soluble Aβ: 20 μM FeCl3, 1 h 37° C. then 1 h with 200 μM ligand; for ZnCl2 % soluble Aβ: 20 μM ZnCl2, 1 h 37° C. then 1 h with 200 μM ligand; for without metal % soluble Aβ: no metal salt, 1 h 37° C. then 1 h with 200 μM ligand. An outline of the steps: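 Aβ1-42 (5 μM) pre-aggregated 1 h at 37 °C with stirring in 20 mM Tris-HCl/150 mM NaCl pH 7.4, with or without CuCl2, ZnCl2 or FeCl3 (20 μM). Ligand (200 μM, DMSO) added, 1 further hour at 37 °C; after centrifugation, peptide in supernatant and pellet quantified by Micro BCA against BSA standards.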

Data set [10] is described as follows: Hydrogen peroxide produced by Aβ1-42 in the presence of CuCl2, ascorbate, air and ligand (Amplex Red H2O2/HRP). Format: biochemical. Conditions: ligand 1 eq/Cu(II) (0.4 μM); CuCl2 0.4 μM, ascorbate 10 μM, air.
The target of data set [11] is T2, copper complexes of Aβ1-42 peptide (Homo sapiens, UniProt P05067).
T2 construct: The β-amyloid peptide Aβ1-42 (Aβ1-42) was synthesised, purified (to a purity greater than 95%); made in house; host or cells: chemical peptide synthesis (no expression host)
The data set is described as above. As to conditions: ligand 1 eq/Cu(II) (0.4 μM); CuCl2 0.4 μM, ascorbate 10 μM, air. Format: biochemical.

Data set [12] is described as follows: UV-visible spectrophotometric titration with CuCl2 (metal/ligand stoichiometry). Format: binding. Conditions: 15 μM ligand; Tris-HCl buffer pH 7.4/organic solvent, per ligand as in Table 3 column Solvent. How it is done:
as §1, §2, §3

Where [13] appears, read: Ls/CuCl2/Lc 1/1/1 at 15 μM, solvent per ligand as in Table 3.
[14] abbreviates: mixture of Ls (15 μM, 1 equivalent) and CuCl2 (1/1, mol/mol).

T1 sequence (P05067 672-713): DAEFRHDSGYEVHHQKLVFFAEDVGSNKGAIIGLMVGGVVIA
T2 sequence (P05067 672-713 limits assumed, one chain of several): as the sequence (P05067 672-713) above

On to `c1ccc(-c2ccccn2)nc1` [biPy, 2,2′-bipyridine], for which, in data set [1], the “number of ZnCl2 equivalent for 15 μM of ligand to be entirely in the form of Zn(II) complex” value was determined as 250 eq ZnCl2. Also, in data set [2], the “log K1 app, Cu(II)” value amounted to 8.1. Further, in data set [3], the “log K1 (stability constant for the MLc species), Cu(II)” value was 8.1 and the “log K2 (stability constant for the M(Lc)2 species), Cu(II)” value (“log K2 … Cu(II)” for short) was 5.5. Moreover, in data set [4], the “log Kapp of comparison chelators for Zn(II)” value is “≈ 5”.

Take `NCCN` [EDA, ethylenediamine]: the “log K1 app, Cu(II)” value in data set [2] is on record as 7.8. Moreover, the “log K2 … Cu(II)” value in data set [3] is reported as 9.1.

On to `NCCNCCN` [Dien, diethylenetriamine], for which, in data set [2], the “log K1 app, Cu(II)” value is listed as 11.8. Also, in data set [3], the “log K2 … Cu(II)” value is listed as 5.0.

For `c1cnc2c(c1)ccc1cccnc12` [1,10-phenanthroline], in data set [1], the “number of ZnCl2 equivalent for 15 μM of ligand to be entirely in the form of Zn(II) complex” value turned out to be 50 eq ZnCl2. The “log Kapp of comparison chelators for Zn(II)” value in data set [4] was found to be 6.3.

For `O=C(O)CN(CC(=O)O)CC(=O)O` [NTA, nitrilotriacetic acid], the “log K1 app, Zn(II)” value in [4] is 8.0. Moreover, the “log K1 (stability constant for the MLc species), Zn(II)” value in data set [5] is 10.5. In data set [5] (ionic strength 0.1-0.2), the “log K2 (stability constant for the M(Lc)2 species), Zn(II)” value is recorded as 3.8.

A word on the logD: it is lipophilicity at a set pH, counting ionised and neutral species. For `Oc1c(I)cc(Cl)c2ccc(CCc3ccc4c(Cl)cc(I)c(O)c4n3)nc12` [Compound 9, 2,2′-(1,2-Ethanediyl)-bis(5-chloro-7-iodo-8-hydroxyquinoline)], in [6], the “percentage of ZnLs species at equilibrium, competing ligand EDTA” value is given as 65%; the “percentage of ZnLs species at equilibrium, competing ligand NTA” value was determined as 100%; the “percentage of ZnLs species at equilibrium, competing ligand Trien” value is reported as 100%. Besides, the “Complex observed by titration with Zn^II (observed L/Zn(II) stoichiometry)” value in [7] is listed as “LZn^II(1/1)”. For the same compound, in data set [8] (setting [13]), the “percentage of the CuLs species at equilibrium, competing ligand Dien” value is recorded as 100%; the “percentage of the CuLs species at equilibrium, competing ligand EDTA” value is 60%; the “percentage of the CuLs species at equilibrium, competing ligand Tetren” value was 0%; the “percentage of the CuLs species at equilibrium, competing ligand Trien” value came out at 45%. Further, in data set [8] (setting [14]), the “number of Lc equivalents making it possible to form 50% of CuLs, Lc = Trien” value was 0.75 eq. The logD at 3 min in [9] came to 5.6 ± 0.5. Besides, at Aβ1-42, the “CuCl2 % soluble Aβ” value worked out at 19%, the “FeCl3 % soluble Aβ” value was 38%, the “ZnCl2 % soluble Aβ” value is listed as 47% and the “without metal % soluble Aβ” value came out at 36%. Besides, the “amount of H2O2, without Aβ1-42” value in [10] stood at 0.66 nmol. In data set [11], the “amount of H2O2, 0.2 μM Aβ1-42 Cu/Aβ = 2” value was 0.82 ± 0.08 nmol and the “amount of H2O2, 0.5 μM Aβ1-42 Cu/Aβ = 0.75” value amounted to 0.82 nmol. Further, in data set [12], the “Complex observed by titration with Cu^II (observed L/Cu(II) stoichiometry)” value is “LCu^II(1/1)”.

Consider `NCCNCCNCCN` [Trien, triethylenetetramine], for which the “log K1 app, Zn(II)” value in data set [4] was 7.8. In data set [5], the “log K1 (stability constant for the MLc species), Zn(II)” value is reported as 11.9.

With `O=C(O)CN(CCOCCOCCN(CC(=O)O)CC(=O)O)CC(=O)O` [EGTA, ethylenebis(oxyethylenenitrilo)-tetraacetic acid], in data set [4], the “log K1 app, Zn(II)” value is given as 9.4.

As for `Oc1ccc(Cl)c2ccc(CCc3ccc4c(Cl)ccc(O)c4n3)nc12` [Compound 8, 2,2′-(1.2-Ethanediyl)-bis(5-chloro-8-hydroxyquinoline 8)], the “percentage of ZnLs species at equilibrium, competing ligand EDTA” value in data set [6] came out at 30%. Further, the “Complex observed by titration with Zn^II (observed L/Zn(II) stoichiometry)” value in [7] is on record as “LZn^II(1/1)”. The “percentage of the CuLs species at equilibrium, competing ligand EDTA” value in data set [8] (setting [13]) came out at 40%. Also, the “number of Lc equivalents making it possible to form 50% of CuLs, Lc = EDTA” value in [8] (setting [14]) came to 0.65 eq. In data set [9], the “log D7.4” value is on record as 4.2 ± 0.1. For the same compound, on Aβ1-42, the “CuCl2 % soluble Aβ” value came out at 36%, the “FeCl3 % soluble Aβ” value is reported as 41%, the “ZnCl2 % soluble Aβ” value was found to be 58% and the “without metal % soluble Aβ” value stood at 59%. For the same compound, the “amount of H2O2, without Aβ1-42” value in [10] was found to be 0.66 nmol. Also, in data set [11], the “amount of H2O2, 0.2 μM Aβ1-42 Cu/Aβ = 2” value is 0.89 ± 0.09 nmol and the “amount of H2O2, 0.5 μM Aβ1-42 Cu/Aβ = 0.75” value came to 0.64 nmol. Besides, the “Complex observed by titration with Cu^II (observed L/Cu(II) stoichiometry)” value in data set [12] is listed as “LCu^II(1/1)”.

Turning to `O=C(O)CN(CCO)CC(=O)O` [HIDA, N-(2-hydroethyl)iminodiacetic acid], the “log K1 app, Cu(II)” value in data set [2] worked out at 10.5. Moreover, in data set [3], the “log K1 (stability constant for the MLc species), Cu(II)” value is on record as 11.8.
